{"source": "patent US6265402A", "about": "“Use of 2-phenylmorpholin-5-one derivatives” (Nikken Chemicals Co., Ltd., priority 1996, dated 2001)"}
{"test_system": "Type IV PDE", "experiment": "Type IV PDE inhibitory activity", "type": "biochemical", "conditions": "Type IV PDE partially purified from rat neutrophils; 3H-cAMP substrate, 30° C., 30 minutes", "description": "Type I, III, IV, and V PDE isozymes were prepared to study the PDE inhibitory activities of and selectivities with the compound of the invention [Trends Pharmacol Sci., 12, 19-27 (1992)]. Type I PDE was purchased from Sigma Corp. Type III, IV, and V PDE isozymes were partially purified from platelets (Type III and V) or neutrophils (Type IV) collected from rats. Each enzyme source was homogenized in a buffer (pH 6.5) containing 20 mM bisTris, 2 mM EDTA (i.e., ethylenediamine tetraacetate), 0.1 mM PMSF (i.e., phenylmethylsulfonyl fluoride), 5 mM 2-mercaptoethanol, 0.001 mM pepstatin and 0.01 mM leupeptin and was centrifuged at 30000×G for 30 minutes to obtain a supernatant, which was applied to an ion exchange column (Q-sepharose First Flow, Pharmacia Corp.) and was eluted with 0 to 1M sodium acetate. Partially purified isozymes were identified by observing the effects by conventional inhibitors.\nEach PDE isozyme and the test compound dissolved in DMSO (i.e., dimethyl sulfoxide) were added to 50 mM Tris-HCl buffer containing 5 mM magnesium chloride. ^3 H-cAMP (for type III and IV PDE) or ^3 H-cGMP (for type I and V PDE) were added as substrates and were reacted at 30° C. for 30 minutes. The reaction was terminated by placing the test tube in boiling water of 100° C. for 5 minutes. The nucleotides formed by PDE were broken down by 5'-nucleotidase to ^3 H-adenosine or 3H-guanosine. The unreacted substrate and reaction product were separated through an ion-exchange column (i.e., QAE sephadex, Pharmacia Corp.) The eluted ^3 H-nucleoside was measured for its radioactivity by a liquid scintillation counter. The inhibitory activities of the compound of the present invention are shown by the IC50 value (M). Further, the inhibitory activities of the test samples against Type I, III, and V are 1/10 or less than that against type IV.", "units": {"IC50": "nM"}}
{"smiles": "COc1ccc(C2CNC(=O)CO2)cc1O[C@H]1CC[C@H](c2ccccc2)CC1", "note": "(relative stereo) [Compound No. 33, 2-[4-methoxy-3-(trans-4-phenylcyclohexyloxy)phenyl]morpholin-5-one]", "IC50": 7200}
{"smiles": "COc1ccc(C2CN(C)C(=O)CO2)cc1O[C@H]1CC[C@H](c2ccccc2)CC1", "note": "(relative stereo) [Compound No. 45, 2-[4-methoxy-3-(trans-4-phenylcyclohexyloxy)phenyl]-4-methylmorpholin-5-one]", "IC50": 580}
{"smiles": "COc1ccc(C2CNC(=O)CO2)cc1OCc1ccccc1", "note": "(stereo not shown) [Compound No. 3, 2-(3-benzyloxy-4-methoxyphenyl)morpholin-5-one]", "IC50": 28000}
{"smiles": "COc1ccc(C2CNC(=O)CO2)cc1OCCc1ccccc1", "note": "(stereo not shown) [Compound No. 4, 2-(4-methoxy-3-phenethyloxyphenyl)morpholin-5-one]", "IC50": 2700}
{"smiles": "CCCCOc1cc(C2CNC(=O)CO2)ccc1OC", "note": "(stereo not shown) [Compound No. 5, 2-(3-butoxy-4-methoxyphenyl)morpholin-5-one]", "IC50": 12000}
{"smiles": "COc1ccc(C2CNC(=O)CO2)cc1OC1Cc2ccccc2C1", "note": "(stereo not shown) [Compound No. 6, 2-[3-(2-indanyloxy)-4-methoxyphenyl]morpholin-5-one]", "IC50": 320}
{"smiles": "COc1ccc(C2CNC(=O)CO2)cc1OC1CCCCC1", "note": "(stereo not shown) [Compound No. 7, 2-(3-cyclohexyloxy-4-methoxyphenyl)morpholin-5-one]", "IC50": 11000}
{"smiles": "COc1ccc(C2CNC(=O)CO2)cc1OCC1CC1", "note": "(stereo not shown) [Compound No. 8, 2-(3-cyclopropylmethoxy-4-methoxyphenyl)morpholin-5-one]", "IC50": 2500}
{"smiles": "COc1ccc(C2(C)CNC(=O)CO2)cc1OC1CCCC1", "note": "(stereo not shown) [Compound No. 10, 2-(3-cyclopentyloxy-4-methoxyphenyl)-2-methylmorpholin-5-one]", "IC50": 3000}
{"smiles": "COc1ccc(C2(c3ccccc3)CNC(=O)CO2)cc1OC1CCCC1", "note": "(stereo not shown) [Compound No. 11, 2-(3-cyclopentyloxy-4-methoxyphenyl)-2-phenylmorpholin-5-one]", "IC50": 74}
{"smiles": "COc1ccc(C2CN(C)C(=O)CO2)cc1OC", "note": "(stereo not shown) [Compound No. 12, 2-(3.4-dimethoxyphenyl)-4-methylmorpholin-5-one]", "IC50": 4700}
{"smiles": "CCOC(=O)CN1CC(c2ccc(OC)c(OC3CCCC3)c2)OCC1=O", "note": "(stereo not shown) [Compound No. 15, 2-(3-cyclopentyloxy-4-methoxyphenyl)-4-ethoxycarbonylmethylmorpholin-5-one]", "IC50": 7900}
{"smiles": "COc1ccc(C2CN(Cc3ccncc3)C(=O)CO2)cc1OC1CCCC1", "note": "(stereo not shown) [Compound No. 16, 2-(3-cyclopentyloxy-4-methoxyphenyl)-4-(4-pyridylmethyl)morpholin-5-one]", "IC50": 5500}
{"smiles": "CCN1CC(c2ccc(OC)c(OC3CCCC3)c2)OCC1=O", "note": "(stereo not shown) [Compound No. 17, 2-(3-cyclopentyloxy-4-methoxyphenyl)-4-ethylmorpholin-5-one]", "IC50": 710}
{"smiles": "COc1ccc(C2CN(Cc3ccc4ccccc4n3)C(=O)CO2)cc1OC1CCCC1", "note": "(stereo not shown) [Compound No. 18, 2-(3-cyclopentyloxy-4-methoxyphenyl)-4-(2-quinolylmethyl)morpholin-5-one]", "IC50": 450}
{"smiles": "CCCCN1CC(c2ccc(OC)c(OC3CCCC3)c2)OCC1=O", "note": "(stereo not shown) [Compound No. 19, 4-butyl-2-(3-cyclopentyloxy-4-methoxyphenyl)morpholin-5-one]", "IC50": 5900}
{"smiles": "COc1ccc(C2CN(C(C)=O)C(=O)CO2)cc1OC1CCCC1", "note": "(stereo not shown) [Compound No. 20, 4-acetyl-2-(3-cyclopentyloxy-4-methoxyphenyl)morpholin-5-one]", "IC50": 2000}
{"smiles": "COc1ccc(C2CN(C)C(=O)CO2)cc1OC1Cc2ccccc2C1", "note": "(stereo not shown) [Compound No. 21, 2-[3-(2-indanyloxy)-4-methoxyphenyl]-4-methylmorpholin-5-one]", "IC50": 44}
{"smiles": "COc1ccc(C2(c3ccccc3)CN(C)C(=O)CO2)cc1OC1CCCC1", "note": "(stereo not shown) [Compound No. 22, 2-(3-cyclopentyloxy-4-methoxyphenyl)-4-methyl-2-phenylmorpholin-5-one]", "IC50": 250}
{"smiles": "COc1ccc(C2(c3ccccc3)CN(Cc3ccncc3)C(=O)CO2)cc1OC1CCCC1", "note": "(stereo not shown) [Compound No. 23, 2-(3-cyclopentyloxy-4-methoxyphenyl)-2-phenyl-4-(4-pyridylmethyl)morpholin-5-one]", "IC50": 2400}
{"smiles": "COc1ccc(C2(c3ccccc3)CNC(=O)CO2)cc1OC1Cc2ccccc2C1", "note": "(stereo not shown) [Compound No. 24, 2-[3-(2-indanyloxy)-4-methoxyphenyl]-2-phenylmorpholin-5-one]", "IC50": 30}
{"smiles": "COc1ccc(C2(c3ccccc3)CN(C)C(=O)CO2)cc1OC1Cc2ccccc2C1", "note": "(stereo not shown) [Compound No. 25, 2-[3-(2-indanyloxy)-4-methoxyphenyl]-4-methyl-2-phenylmorpholin-5-one]", "IC50": 110}
{"smiles": "COc1ccc(C2CNC(=O)CO2)cc1OCCCCCc1ccccc1", "note": "(stereo not shown) [Compound No. 26, 2-[4-methoxy-3-(5-phenylpentyloxy)phenyl]morpholin-5-one]", "IC50": 620}
{"smiles": "COc1ccc(C2(C)CN(C)C(=O)CO2)cc1OC1Cc2ccccc2C1", "note": "(stereo not shown) [Compound No. 28, 2.4-dimethyl-2-[3-(2-indanyloxy)-4-methoxyphenyl]morpholin-5-one]", "IC50": 30}
{"smiles": "COc1ccc(C2CN(C)C(=O)CO2)cc1OCCCCCc1ccccc1", "note": "(stereo not shown) [Compound No. 29, 2-[4-methoxy-3-(5-phenylpentyloxy)phenyl]-4-methylmorpholin-5-one]", "IC50": 480}
{"smiles": "COc1ccc(C2CNC(=O)CO2)cc1OCCOCc1ccccc1", "note": "(stereo not shown) [Compound No. 30, 2-[3-[2-(benzyloxy)ethoxy]-4-methoxyphenyl]morpholin-5-one]", "IC50": 5700}
{"smiles": "COc1ccc(C2CNC(=O)CO2)cc1OCCc1ccc(F)cc1", "note": "(stereo not shown) [Compound No. 32, 2-[3-[2-(4-fluorophenyl)ethoxy]-4-methoxyphenyl]morpholin-5-one]", "IC50": 1700}
{"smiles": "COc1ccc(C2CNC(=O)CO2)cc1OCC1(c2ccccc2)CC1", "note": "(stereo not shown) [Compound No. 34, 2-[4-methoxy-3-[(1-phenylcyclopropyl)methoxy]phenyl]morpholin-5-one]", "IC50": 1900}
{"smiles": "COc1ccc(C2CNC(=O)CO2)cc1OCCc1cccc2ccccc12", "note": "(stereo not shown) [Compound No. 37, 2-[4-methoxy-3-[2-(1-naphthyl)ethoxy]phenyl]morpholin-5-one]", "IC50": 2700}
{"smiles": "CCN1CC(c2ccc(OC)c(OC3Cc4ccccc4C3)c2)OCC1=O", "note": "(stereo not shown) [Compound No. 40, 4-ethyl-2-[3-(2-indanyloxy)-4-methoxyphenyl]morpholin-5-one]", "IC50": 93}
{"smiles": "COc1ccc(C2CN(C)C(=O)CO2)cc1OCCc1ccc(F)cc1", "note": "(stereo not shown) [Compound No. 41, 2-[3-[2-(4-fluorophenyl)ethoxy]-4-methoxyphenyl]-4-methylmorpholin-5-one]", "IC50": 380}
{"smiles": "COc1ccc(C2CN(C)C(=O)CO2)cc1OCC1(c2ccccc2)CC1", "note": "(stereo not shown) [Compound No. 42, 2-[3-[(1-phenylcyclopropyl)methoxy]-4-methoxyphenyl]-4-methylmorpholin-5-one]", "IC50": 310}
{"smiles": "COc1ccc(C2CN(C)C(=O)CO2)cc1OCC1(C)CC1", "note": "(stereo not shown) [Compound No. 43]", "IC50": 610}
{"smiles": "COc1ccc(C2CN(C)C(=O)CO2)cc1OCC1CCCC1", "note": "(stereo not shown) [Compound No. 44, 2-(3-cyclopentylmethoxy-4-methoxyphenyl)-4-methylmorpholin-5-one]", "IC50": 770}
{"smiles": "COc1ccc(C2CN(C)C(=O)CO2)cc1OCCOCc1ccccc1", "note": "(stereo not shown) [Compound No. 46, 2-[4-methoxy-3-(2-benzyloxyethoxy)phenyl]-4-methylmorpholin-5-one]", "IC50": 570}
{"smiles": "COc1ccc(C2CN(C)C(=O)CO2)cc1OCCc1cccc2ccccc12", "note": "(stereo not shown) [Compound No. 47]", "IC50": 300}
{"smiles": "COc1ccc(C2CN(C)C(=O)CO2)cc1OCC1CCC1", "note": "(stereo not shown) [Compound No. 48, 2-(3-cyclobutylmethoxy-4-methoxyphenyl)-4-methylmorpholin-5-one]", "IC50": 380}
{"smiles": "COc1ccc(C2CN(C)C(=O)CO2)cc1OCC(C)C", "note": "(stereo not shown) [Compound No. 49, 2-[3-(2-methylpropoxy)-4-methoxyphenyl]-4-methylmorpholin-5-one]", "IC50": 350}
{"smiles": "COc1ccc(C2CNC(=O)CO2)cc1OCCC1Cc2ccccc2C1", "note": "(stereo not shown) [Compound No. 50, 2-[3-[2-(2-indanyl)ethoxy]-4-methoxyphenyl]morpholin-5-one]", "IC50": 3800}
{"smiles": "COc1ccc(C2CN(C)C(=O)CO2)cc1OCCC1Cc2ccccc2C1", "note": "(stereo not shown) [Compound No. 51, 2-[3-[2-(2-indanyl)ethoxy]-4-methoxvphenyl]-4-methylmorpholin-5-one]", "IC50": 100}
{"smiles": "COc1ccc(C2CN(C)C(=O)CO2)cc1OCC1CC1", "note": "(stereo not shown) [Compound No. 52, 2-(3-cyclopropylmethoxy-4-methoxyphenyl)-4-methylmorpholin-5-one]", "IC50": 2800}
{"test_system": "antigen-induced bronchospasms", "experiment": "Inhibitory effect on Antigen-Induced Bronchospasm (Anti-Asthmatic action)", "type": "in vivo", "conditions": "Cavia porcellus; Hartley male guinea pig sensitized with Ovalbumin; intravenous, 10 minutes before 0.2 mg/kg OA i.v.; Konzett-Roessler method; read-out: Action for suppressing antigen-induced bronchospasms ED50", "description": "Inhibitory effect on Antigen-Induced Bronchospasm (Anti-Asthmatic action)\nA Hartley male guinea pig was sensitized by intramuscular administration of 35 mg Ovalbumin (OA) on first day and fourth day. A tracheal canula was introduced in the guinea pig anesthetized with pentobarbital and artificial ventilation was performed 25 to 29 days after the first sensitization. The overflow of the ventilation was measured by the Konzett-Roessler method while 0.2 mg/kg OA were administered intravenously. The test compound was dissolved in polyethylene glycol 400 and intravenously administered 10 minutes before administration of the antigens.", "units": {"ED50": "mg/kg"}}
{"smiles": "CCCCOc1cc(C2CNC(=O)CO2)ccc1OC", "note": "(stereo not shown) [Compound No. 5, 2-(3-butoxy-4-methoxyphenyl)morpholin-5-one]", "ED50": 3.6}
{"smiles": "COc1ccc(C2CNC(=O)CO2)cc1OCC1CC1", "note": "(stereo not shown) [Compound No. 8, 2-(3-cyclopropylmethoxy-4-methoxyphenyl)morpholin-5-one]", "ED50": 4.31}
